Assay results: US8071625B2, “Certain chemical entities, compositions, and methods” (Cytokinetics, Inc., priority 2006, dated 2011)

Each molecule was assayed against T1, crosslinked smooth muscle actomyosin (chicken gizzard smooth muscle myosin subfragment-1 crosslinked to cardiac or skeletal actin) (Gallus gallus, UniProt P10587) (assay: Lead optimization pyruvate kinase/horseradish peroxidase/pyruvate oxidase-coupled ATPase assay (compound dose response)). Conditions: read-out: IC50 Arithmetic Mean.
T1 construct: chicken gizzard smooth muscle myosin subfragment-1; from tissue; host or cells: chicken gizzard
Assay type: biochemical
In short: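 The ATPase used chicken gizzard smooth muscle myosin S1 chemically crosslinked to cardiac or skeletal actin, titrated to a set hydrolysis rate. It was coupled via pyruvate kinase/pyruvate oxidase/HRP in 12 mM K-PIPES pH 7.00 (22 °C) with 0.15 mM ATP, 2 mM MgCl2, 100 mM KCl and 0.1 mM Amplex Red. Fluorescence was read at ex 480/em 615 nm, and IC50 came from a 4-parameter fit.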

| SMILES | IC50 [µM] |
| --- | --- |
| CCc1ccc(NC(=O)OCCOC(=O)NCc2ccccc2Cl)cc1 [(2-{N-[(2-chlorophenyl)methyl]carbamoyloxy}ethoxy)-N-(4-ethylphenyl)carboxamide] | 3.69 |
| COC(=O)c1ccc(NC(=O)OCC2(C(=O)NCc3ccccc3Cl)CCN(C(=O)CN)CC2)cc1 [methyl 4-{[(1-(2-aminoacetyl)-4-{N-[(2-chlorophenyl)methyl]carbamoyl}-4-piperidyl)methoxy]carbonylamino}benzoate] | 1.81 |
| CCc1ccc(NC(=O)OCC2(C(=O)NCc3ccccc3CC)CCN(C(=O)CN)CC2)cc1 [[(1-(2-aminoacetyl)-4-{N-[(2-ethylphenyl)methyl]carbamoyl}(4-piperidyl))methoxy]-N-(4-ethylphenyl)carboxamide] | 0.951 |
| CCc1ccc(NC(=O)OCC2(C(=O)NCc3ccccc3Cl)CCN(C(=O)[C@H](CO)NC(=O)OC(C)(C)C)CC2)cc1 [N-[(1S)-2-(4-{N-[(2-chlorophenyl)methyl]carbamoyl}-4-{[N-(4-ethylphenyl)carbamoyloxy]methyl}piperidyl)-1-(hydroxymethyl)-2-oxoethyl](tert-butoxy)carboxamide] | 0.416 |
| Cc1c(Cl)cccc1CNC(=O)C1(COC(=O)Nc2ccc(C(F)(F)F)cc2)CCN(C(=O)CN)CC1 [[(1-(2-aminoacetyl)-4-{N-[(3-chloro-2-methylphenyl)methyl]carbamoyl}(4-piperidyl))methoxy]-N-[4-(trifluoromethyl)phenyl]carboxamide] | 0.179 |
| CCc1ccc(NC(=O)OCC2(C(=O)NCc3ccccc3C#N)CCN(C(=O)CNC(=O)OC(C)(C)C)CC2)cc1 [(1-{2-[(tert-butoxy)carbonylamino]acetyl}-4-{[N-(4-ethylphenyl)carbamoyloxy]methyl}(4-piperidyl))-N-[(2-cyanophenyl)methyl]carboxamide] | 7.69 |
| CCc1ccc(NC(=O)OCC2(C(=O)NCc3cccc(F)c3F)CCN(C(=O)CN)CC2)cc1 [[(1-(2-aminoacetyl)-4-{N-[(2,3-difluorophenyl)methyl]carbamoyl}(4-piperidyl))methoxy]-N-(4-ethylphenyl)carboxamide] | 0.164 |
| CCc1ccc(NC(=O)OCC(C)(C)C(=O)NCc2ccccc2Cl)cc1 [N-[(2-chlorophenyl)methyl]-3-[N-(4-ethylphenyl)carbamoyloxy]-2,2-dimethylpropanamide] | 2.51 |
| CCc1ccc(NC(=O)N2CCN(C(=O)CN)C(C(=O)NCc3ccccc3Cl)C2)cc1 (centres unmarked) [(4-(2-aminoacetyl)-3-{N-[(2-chlorophenyl)methyl]carbamoyl}piperazinyl)-N-(4-ethylphenyl)carboxamide] | 15.2 |
| CCc1ccc(NC(=O)OCC2(C(=O)NCc3ccc(Cl)cc3C)CCN(C(=O)CN)CC2)cc1 [[(1-(2-aminoacetyl)-4-{N-[(4-chloro-2-methylphenyl)methyl]carbamoyl}(4-piperidyl))methoxy]-N-(4-ethylphenyl)carboxamide] | 0.145 |
| CCc1ccc(NC(=O)OCC2(C(=O)NCc3ccccc3Cl)CCN(C(=O)C3CCCCC3)CC2)cc1 [N-[(2-chlorophenyl)methyl](1-(cyclohexylcarbonyl)-4-{[N-(4-ethylphenyl)carbamoyloxy]methyl}(4-piperidyl))carboxamide] | 2.77 |
| CCc1ccc(NC(=O)NC[C@@H]2CCCN2C(=O)OCc2ccccc2Cl)cc1 [(2-chlorophenyl)methyl (2S)-2-({[(4-ethylphenyl)amino]carbonylamino}methyl)pyrrolidinecarboxylate] | 3.53 |
| CN(CCOC(=O)Nc1ccc(-c2ccccc2)cc1)C(=O)NCc1ccccc1Cl [{[(2-chlorophenyl)methyl]amino}-N-methyl-N-{2-[N-(4-phenylphenyl)carbamoyloxy]ethyl}carboxamide] | 0.248 |
| CCc1ccc(NC(=O)OCCC(N)C(=O)NCc2ccccc2Cl)cc1 (centres unmarked) [2-amino-N-[(2-chlorophenyl)methyl]-4-[N-(4-ethylphenyl)carbamoyloxy]butanamide] | 6.81 |

More lines, in order of falling IC50, values ahead:

| IC50 [µM] | SMILES |
| --- | --- |
| 11.8 | CCc1ccc(NC(=O)OCC2(C(=O)NCc3ccc(C(F)(F)F)cc3F)CCN(C(=O)CN)CC2)cc1 [{[1-(2-aminoacetyl)-4-(N-{[2-fluoro-4-(trifluoromethyl)phenyl]methyl}carbamoyl)(4-piperidyl)]methoxy}-N-(4-ethylphenyl)carboxamide] |
| 4.37 | CCc1ccc(NC(=O)OCCC(NC(=O)CN)C(=O)NCc2ccccc2Cl)cc1 (centres unmarked) [2-(2-aminoacetylamino)-N-[(2-chlorophenyl)methyl]-4-[N-(4-ethylphenyl)carbamoyloxy]butanamide] |
| 4.27 | CC(=O)c1ccc(NC(=O)OCC2(C(=O)NCc3ccccc3Cl)CCOCC2)cc1 [(4-{[N-(4-acetylphenyl)carbamoyloxy]methyl}(2H-3,4,5,6-tetrahydropyran-4-yl))-N-[(2-chlorophenyl)methyl]carboxamide] |
| 0.585 | CCc1ccc(NC(=O)OCC2(C(=O)NCc3ccccc3Cl)CCN(C(=O)C(N)CCN)CC2)cc1 (centres unmarked) [(1-(2,4-diaminobutanoyl)-4-{[N-(4-ethylphenyl)carbamoyloxy]methyl}(4-piperidyl))-N-[(2-chlorophenyl)methyl]carboxamide] |
| 0.159 | CCc1ccc(NC(=O)OCC2(C(=O)NCc3ccccc3Cl)CCN(C(=O)NCCN)CC2)cc1 [N-(2-aminoethyl)(4-{N-[(2-chlorophenyl)methyl]carbamoyl}-4-{[N-(4-ethylphenyl)carbamoyloxy]methyl}piperidyl)carboxamide] |
| 0.148 | CCc1ccc(NC(=O)OC[C@H](C)N(C)C(=O)NCc2ccccc2Cl)cc1 [N-{(1S)-2-[N-(4-ethylphenyl)carbamoyloxy]-isopropyl}{[(2-chlorophenyl)methyl]amino}-N-methylcarboxamide] |
